Like-named read-outs stand apart in the source and are kept apart here.
Columns and labels:
[1] = system: Mycosphaerella graminicola; anamorph: Septoria tritici; Bayer code SEPTTR; experiment: Fungicidal activity: leaf blotch of wheat, one-day protectant (1DP) and three-day curative (3DC) tests on wheat plants; type: in vivo, Septoria tritici on wheat plants (variety Yuma); details: Zymoseptoria tritici, rating of % disease control vs untreated inoculated plants
Experimental: Evaluation of Fungicidal Activity: Leaf Blotch of Wheat (Mycosphaerella graminicola; anamorph: Septoria tritici; Bayer code […]) Wheat plants (variety Yuma) were grown from seed in a greenhouse in 50% mineral soil/50% soil-less Metro mix until the first leaf was fully emerged, with 7-10 seedlings per pot. These plants were inoculated with an aqueous spore suspension of Septoria tritici either prior to or after fungicide treatments. After inoculation the plants were kept in 100% relative humidity (one day in a dark dew chamber followed by two to three days in a lighted dew chamber) to permit spores to germinate and infect the leaf. The plants were then transferred to a greenhouse for disease to develop. The following table presents the activity of typical compounds of the present disclosure when evaluated in these experiments. The effectiveness of the test compounds in controlling disease was determined by assessing the severity of disease on treated plants, then converting the severity to percent control based on the level of disease on untreated, inoculated plants. In each case of Table III the rating scale is as follows: […]

[2] = 24 h, one-day protectant, read-out: SEPTTR 25 ppm 1DP
[3] = 24 h, one-day protectant, read-out: SEPTTR 100 ppm 1DP
[4] = 72 h, three-day curative, read-out: SEPTTR 25 ppm 3DC
[5] = 72 h, three-day curative, read-out: SEPTTR 100 ppm 3DC

| melting point | Compound | pest or weed control at 25 ppm [1, 2] | pest or weed control at 100 ppm [1, 3] | pest or weed control at 25 ppm [1, 4] | pest or weed control at 100 ppm [1, 5] |
| --- | --- | --- | --- | --- | --- |
| 201 to 220 °C (dec.) | Cc1ccc(C=NOc2ncc(F)c(N)n2)cc1 [Compound 11] | 76 to 100% | 76 to 100% | 76 to 100% | 76 to 100% |
| 90 to 92 °C | CC(C)C=NOc1ncc(F)c(N(C)C)n1 [Compound 55] | 0 to 25% | 0 to 25% | 0 to 25% | 0 to 25% |
| 100 to 103 °C | COc1ccc(C=NOc2ncc(F)c(N(C)Cc3ccccc3)n2)cc1 [Compound 38] | 0 to 25% | 0 to 25% | 26 to 50% | 51 to 75% |
| 144 to 146 °C | CN(C)c1nc(ON=Cc2ccc(Cl)cc2)ncc1F [Compound 52] | 0 to 25% | 0 to 25% | 0 to 25% | 26 to 50% |
| 111 to 114 °C | Fc1cnc(ON=Cc2ccc(Cl)cc2)nc1NCc1ccccc1 [Compound 22] | 0 to 25% | 76 to 100% | 0 to 25% | 0 to 25% |
| 102 to 105 °C | CC=NOc1ncc(F)c(N)n1 [Compound 10] | 76 to 100% | 76 to 100% | 76 to 100% | 76 to 100% |
| 106 to 107 °C | COc1ccc(C=NOc2ncc(F)c(N(C)C)n2)cc1 [Compound 53] | 0 to 25% | 0 to 25% | 0 to 25% | 0 to 25% |
| 200 to 205 °C | CC(C)C=NOc1ncc(F)c(NCc2ccc(Cl)cc2)n1 [Compound 30] | 0 to 25% | 26 to 50% | 0 to 25% | 26 to 50% |
| 240 to 250 °C (dec.) | COc1ccccc1C=NOc1ncc(F)c(N)n1 [Compound 9] | 76 to 100% | 76 to 100% | 76 to 100% | 76 to 100% |
| 99 to 100 °C | CC=NOc1ncc(F)c(NCc2ccccc2F)n1 [Compound 20] | 26 to 50% | 51 to 75% | 51 to 75% | 76 to 100% |
| 176 to 179 °C | CC(C)C=NOc1ncc(F)c(N(C)Cc2ccccc2)n1 [Compound 40] | 0 to 25% | 0 to 25% | 0 to 25% | 51 to 75% |
| 141 to 142 °C | COc1ccc(C=NOc2ncc(F)c(NCc3ccc(Cl)cc3)n2)cc1 [Compound 28] | 0 to 25% | 26 to 50% | 0 to 25% | 0 to 25% |
| 186 to 210 °C (dec.) | CN(C)/C=N/c1nc(ON=Cc2ccccc2Cl)ncc1F [Compound 3] | 76 to 100% | 76 to 100% | 76 to 100% | 76 to 100% |
| 98 to 103 °C | Fc1ccccc1CNc1nc(ON=Cc2ccc(Cl)cc2)ncc1F [Compound 18] | 76 to 100% | 76 to 100% | 0 to 25% | 0 to 25% |
| 214 to 220 °C (dec.) | CC=NOc1ncc(F)c(N(C)Cc2ccc(Cl)cc2)n1 [Compound 44] |  |  |  |  |

Further lines, the molecule ahead of its results:

| Compound | melting point | pest or weed control at 25 ppm [1, 2] | pest or weed control at 100 ppm [1, 3] | pest or weed control at 25 ppm [1, 4] | pest or weed control at 100 ppm [1, 5] |
| --- | --- | --- | --- | --- | --- |
| COc1ccc(CN(C)c2nc(ON=Cc3ccccc3)ncc2F)cc1 [Compound 46] |  | 0 to 25% | 0 to 25% | 26 to 50% | 76 to 100% |
| CC=NOc1ncc(F)c(N(C)Cc2ccc(OC)cc2)n1 [Compound 49] |  | 0 to 25% | 0 to 25% | 0 to 25% | 26 to 50% |
| Fc1ccccc1CNc1nc(ON=Cc2ccccc2)ncc1F [Compound 17] |  | 76 to 100% | 76 to 100% | 0 to 25% | 0 to 25% |
| COc1ccc(CNc2nc(ON=CC(C)C)ncc2F)cc1 [Compound 35] |  | 0 to 25% | 26 to 50% | 0 to 25% | 76 to 100% |
| COc1ccc(CNc2nc(ON=Cc3ccc(Cl)cc3)ncc2F)cc1 [Compound 32] |  | 0 to 25% | 0 to 25% | 26 to 50% | 76 to 100% |
| CC(C)C=NOc1ncc(F)c(NCc2ccccc2)n1 [Compound 25] |  | 0 to 25% | 26 to 50% | 26 to 50% | 76 to 100% |
| O=CNc1nc(ON=Cc2ccccc2)ncc1F [Compound 4, N-{5-fluoro-2-[1-phenylmethylideneamino-oxy]pyrimidin-4-yl}formamide] |  | 76 to 100% | 76 to 100% | 76 to 100% | 76 to 100% |
| Nc1nc(ON=Cc2ccc(Cl)cc2)ncc1F [Compound 8] | 200 to 220 °C (dec.) | 76 to 100% | 76 to 100% | 76 to 100% | 76 to 100% |
| CN(Cc1ccccc1)c1nc(ON=Cc2ccccc2)ncc1F [Compound 36] |  | 0 to 25% | 0 to 25% | 26 to 50% | 51 to 75% |
| COc1ccc(C=NOc2ncc(F)c(N(C)Cc3ccc(Cl)cc3)n2)cc1 [Compound 43] |  | 0 to 25% | 0 to 25% | 26 to 50% | 26 to 50% |
| COc1ccc(C=NOc2ncc(F)c(NCc3ccc(OC)cc3)n2)cc1 [Compound 33] |  | 51 to 75% | 76 to 100% | 0 to 25% | 51 to 75% |
| COc1ccc(CNc2nc(ON=Cc3ccccc3)ncc2F)cc1 [Compound 31] |  | 26 to 50% | 76 to 100% | 51 to 75% | 76 to 100% |
| CC(C)C=NOc1ncc(F)c(NCc2ccccc2F)n1 [Compound 16, 2-methylpropionaldehyde O-[5-fluoro-4-(2-fluorobenzylamino)pyrimidin-2-yl]oxime] |  | 0 to 25% | 0 to 25% | 51 to 75% | 76 to 100% |
| CC=NOc1ncc(F)c(NCc2ccccc2)n1 [Compound 24] |  | 0 to 25% | 0 to 25% | 0 to 25% | 26 to 50% |
| COc1ccc(C=NOc2ncc(F)c(NCc3ccccc3F)n2)cc1 [Compound 19] |  | 51 to 75% | 76 to 100% | 0 to 25% | 0 to 25% |
